# Measurements: ChEMBL document CHEMBL1201862, “PubChem BioAssay data set” (2004)
#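 48-hour exposure; five concentrations; linearly interpolated endpoints. At the GI50, growth is halved.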 The source made the active and inactive calls. Cut-off read from the data, not from the text of the source: active = GI50 up to about 1.1 µM and inactive = higher.
# Tests used:
# Test in all cases: inhibition of tumour cell growth, NCI panel, 48 h
# 786-0 = tested on: 786-0
# ACHN = tested on: ACHN
# CAKI-1 = tested on: CAKI-1
# CCRF-CEM = tested on: CCRF-CEM
# COLO 205 = tested on: COLO 205
# HOP-62 = tested on: HOP-62
# Hs-578T = tested on: Hs-578T
# MDA-MB-435 = tested on: MDA-MB-435
# MDA-N = tested on: MDA-N
# NCI/ADR-RES = tested on: NCI/ADR-RES
# OVCAR-3 = tested on: OVCAR-3
# OVCAR-4 = tested on: OVCAR-4
# PC-3 = tested on: PC-3
# RPMI-8226 = tested on: RPMI-8226
# SF-539 = tested on: SF-539
# SK-MEL-2 = tested on: SK-MEL-2
# SK-OV-3 = tested on: SK-OV-3
# SW-620 = tested on: SW-620
# T47D = tested on: T47D
# UACC-62 = tested on: UACC-62
SMILES,GI50 (786-0),GI50 (ACHN),GI50 (CAKI-1),GI50 (CCRF-CEM),GI50 (COLO 205),GI50 (HOP-62),GI50 (Hs-578T),GI50 (MDA-MB-435),GI50 (MDA-N),GI50 (NCI/ADR-RES),GI50 (OVCAR-3),GI50 (OVCAR-4),GI50 (PC-3),GI50 (RPMI-8226),GI50 (SF-539),GI50 (SK-MEL-2),GI50 (SK-OV-3),GI50 (SW-620),GI50 (T47D),GI50 (UACC-62)
COC(=O)Nc1nc2cc(NS(=O)(=O)c3cccs3)ccc2[nH]1,34.3 µM (inactive),42.8 µM (inactive),30.4 µM (inactive),34.8 µM (inactive),20.7 µM (inactive),26.4 µM (inactive),10.4 µM (inactive),3.62 µM (inactive),3.56 µM (inactive),25.1 µM (inactive),14.6 µM (inactive),38.9 µM (inactive),33.9 µM (inactive),35.1 µM (inactive),29.2 µM (inactive),76.6 µM (inactive),28.4 µM (inactive),20.7 µM (inactive),28.7 µM (inactive),17 µM (inactive)
Cc1nnc(Sc2nc(C#N)c(C#N)nc2Sc2nnc(C)s2)s1,4.13 µM (inactive),2.93 µM (inactive),2.32 µM (inactive),2.1 µM (inactive),4.84 µM (inactive),23.3 µM (inactive),14.6 µM (inactive),12.7 µM (inactive),12.2 µM (inactive),17.7 µM (inactive),6.32 µM (inactive),13.4 µM (inactive),14.8 µM (inactive),2.5 µM (inactive),12 µM (inactive),18.4 µM (inactive),17.2 µM (inactive),1.67 µM (inactive),2.54 µM (inactive),17.2 µM (inactive)
C=CCn1c2c(c3ccccc3c1=O)C(=O)c1ccccc1-2,22.4 µM (inactive),51.9 µM (inactive),> 100 µM (inactive),> 100 µM (inactive),> 100 µM (inactive),31.4 µM (inactive),> 60.3 µM (inactive),> 87.3 µM (inactive),> 100 µM (inactive),> 100 µM (inactive),> 100 µM (inactive),54.8 µM (inactive),> 100 µM (inactive),> 25.6 µM (inactive),> 70.6 µM (inactive),> 100 µM (inactive),> 100 µM (inactive),73.6 µM (inactive),> 100 µM (inactive),> 78 µM (inactive)
C=CCNC1=C2C[C@@H](C)C[C@@H](OC)[C@@H](OC(=O)CCCN)[C@H](C)/C=C(\C)[C@@H](OC(N)=O)[C@H](OC)/C=C\C=C(/C)C(=O)NC(=CC1=O)C2=O,17.1 µM (inactive),18.8 µM (inactive),19.8 µM (inactive),10.6 µM (inactive),3.54 µM (inactive),6.24 µM (inactive),20.9 µM (inactive),20.3 µM (inactive),12.6 µM (inactive),> 100 µM (inactive),16.7 µM (inactive),20.6 µM (inactive),14 µM (inactive),14.3 µM (inactive),12.6 µM (inactive),15.9 µM (inactive),14.6 µM (inactive),19.7 µM (inactive),27.4 µM (inactive),15.2 µM (inactive)
CCOC(=O)CSc1nnc2cc(CN3CCCC3)c(-c3ccc(Cl)cc3)nn12,92.3 µM (inactive),> 100 µM (inactive),> 100 µM (inactive),48.1 µM (inactive),> 100 µM (inactive),> 100 µM (inactive),> 100 µM (inactive),72.9 µM (inactive),85.9 µM (inactive),> 100 µM (inactive),> 100 µM (inactive),33.6 µM (inactive),> 100 µM (inactive),63.2 µM (inactive),60.1 µM (inactive),> 100 µM (inactive),> 100 µM (inactive),> 100 µM (inactive),57.5 µM (inactive),> 100 µM (inactive)
COc1cccc2c1C(=O)C1=C(C2=O)C(O)CC(C)(C)O1 (configuration not stated),42.4 µM (inactive),36.1 µM (inactive),50.7 µM (inactive),23.4 µM (inactive),23.5 µM (inactive),> 100 µM (inactive),> 100 µM (inactive),20 µM (inactive),19.5 µM (inactive),28.7 µM (inactive),13.1 µM (inactive),19.3 µM (inactive),25.5 µM (inactive),22.3 µM (inactive),37.9 µM (inactive),36.2 µM (inactive),> 100 µM (inactive),34.1 µM (inactive),49.8 µM (inactive),25.1 µM (inactive)
N#CC(C#N)=C1CCCS(=O)(=O)c2ccccc21,> 100 µM (inactive),> 100 µM (inactive),> 100 µM (inactive),> 100 µM (inactive),> 100 µM (inactive),> 100 µM (inactive),> 100 µM (inactive),> 100 µM (inactive),> 100 µM (inactive),> 100 µM (inactive),> 100 µM (inactive),> 100 µM (inactive),> 100 µM (inactive),> 100 µM (inactive),> 100 µM (inactive),> 100 µM (inactive),> 100 µM (inactive),> 100 µM (inactive),> 100 µM (inactive),> 100 µM (inactive)
Cc1cc2c(cc1C(=O)c1ccc(N)cc1)OCO2,34.6 µM (inactive),> 100 µM (inactive),24.5 µM (inactive),39.1 µM (inactive),16 µM (inactive),58.7 µM (inactive),48 µM (inactive),7.82 µM (inactive),12.4 µM (inactive),25.1 µM (inactive),0.347 µM (active),,43.6 µM (inactive),36.3 µM (inactive),27.2 µM (inactive),23.9 µM (inactive),24.5 µM (inactive),34.8 µM (inactive),28 µM (inactive),31 µM (inactive)
Cc1cc(N(CCC#N)CCC#N)ccc1C(/N=N\c1ccc([N+](=O)[O-])cc1)=N\NC(=O)c1cc(Cl)ccc1O,47.8 µM (inactive),27.8 µM (inactive),40.7 µM (inactive),25.1 µM (inactive),25 µM (inactive),26.2 µM (inactive),15.7 µM (inactive),64.9 µM (inactive),51.3 µM (inactive),28.7 µM (inactive),14.2 µM (inactive),26.5 µM (inactive),23 µM (inactive),> 100 µM (inactive),40.4 µM (inactive),34.4 µM (inactive),50.7 µM (inactive),,25.9 µM (inactive),22.9 µM (inactive)
COc1cc2c(cc1O)CC[n+]1cc3c(OC)c(OC)ccc3cc1-2,> 100 µM (inactive),> 100 µM (inactive),> 100 µM (inactive),> 100 µM (inactive),72.4 µM (inactive),,> 100 µM (inactive),> 100 µM (inactive),> 100 µM (inactive),> 100 µM (inactive),59.4 µM (inactive),> 100 µM (inactive),> 100 µM (inactive),81.8 µM (inactive),> 100 µM (inactive),> 100 µM (inactive),> 100 µM (inactive),> 100 µM (inactive),94.4 µM (inactive),> 100 µM (inactive)
[N-]=[N+]=NCC1OC(n2cnc3c(N)ncnc32)C2OC12 (configuration not stated),> 100 µM (inactive),> 100 µM (inactive),> 100 µM (inactive),> 100 µM (inactive),> 100 µM (inactive),> 100 µM (inactive),> 100 µM (inactive),> 100 µM (inactive),> 100 µM (inactive),> 100 µM (inactive),> 100 µM (inactive),> 100 µM (inactive),> 100 µM (inactive),> 100 µM (inactive),> 100 µM (inactive),> 100 µM (inactive),> 100 µM (inactive),> 100 µM (inactive),> 100 µM (inactive),> 100 µM (inactive)
Nc1nc2cc(CNc3ccc(C(=O)NC(CCC(=O)O)C(=O)O)cc3)ccc2nc1-c1ccccc1 (configuration not stated),> 10 µM (inactive),> 10 µM (inactive),> 10 µM (inactive),> 10 µM (inactive),> 10 µM (inactive),> 10 µM (inactive),> 10 µM (inactive),> 10 µM (inactive),> 10 µM (inactive),> 10 µM (inactive),> 10 µM (inactive),> 10 µM (inactive),> 10 µM (inactive),> 10 µM (inactive),> 10 µM (inactive),> 10 µM (inactive),> 10 µM (inactive),> 10 µM (inactive),> 10 µM (inactive),> 10 µM (inactive)
O=c1[nH]nc(Cc2ccccc2)n1/N=C/c1ccc([N+](=O)[O-])o1,2.76 µM (inactive),3.4 µM (inactive),3.11 µM (inactive),1.16 µM (inactive),1.89 µM (inactive),3.08 µM (inactive),1 µM (active),1.57 µM (inactive),1.69 µM (inactive),2.75 µM (inactive),0.292 µM (active),4.92 µM (inactive),3.15 µM (inactive),2.63 µM (inactive),2.11 µM (inactive),3.56 µM (inactive),15.4 µM (inactive),1.39 µM (inactive),6.7 µM (inactive),1.75 µM (inactive)
COc1ccc(/C=C/C(=O)c2ccc(OC(=O)/C=C/c3ccccc3)cc2)cc1,17 µM (inactive),34.6 µM (inactive),23.3 µM (inactive),5.21 µM (inactive),32.2 µM (inactive),61.1 µM (inactive),36 µM (inactive),7.73 µM (inactive),14.5 µM (inactive),31.2 µM (inactive),32 µM (inactive),24.4 µM (inactive),25.7 µM (inactive),3.7 µM (inactive),11.5 µM (inactive),45.1 µM (inactive),53 µM (inactive),28.1 µM (inactive),23.9 µM (inactive),22.7 µM (inactive)
